The record followed here is publication PMC10020666, “Oxidation modulates LINGO2-induced inactivation of large conductance, Ca^2+-activated potassium channels” (The Journal of Biological Chemistry, 2023).

Entries after “also recorded” stand apart in the source; their conditions may differ.

Assay [1] deals with BK:LINGO2 channels. Kind of assay: Effect of oxidizing/reducing agents on BK:LINGO2 currents (inside-out patch, step to +160 mV). In kind it is cell-based, rabbit BKα, human LINGO2. The settings on record: 200 μM Ch-T, 100 nM Ca2+. The protocol: (§1) All excised patch experiments were performed at 37 °C in 140 mM symmetrical K^+ solutions which contained 140 mM KCl, 10 mM glucose, 10 mM Hepes, and either 1 mM ethylene glycol-bis(β-amino ether)-N,N,N′,N′-tetraacetic acid (EGTA (for free [Ca^2+] 100 nM to 300 nM) or 1 mM hydroxyethylethylenediaminetriacetic acid (HEDTA for free [Ca^2+] 1 μM to 10 μM) and the pH of all solutions was adjusted to 7.2 with KOH. These solutions were made with double-distilled, deionized, filtered water from a MilliQ water purification system. The pipette solution contained 100 nM free Ca^2+. We used “Chelator” (https://www.ru.nl/animal/research/chelator/) to calculate the total amount of Ca^2+ required, as per Schoenmakers et al., ([40]) and free Ca^2+ concentrations were checked with a Ca^2+ sensitive electrode.
(§2) During experiments, the dish containing HEK cells was superfused with Hanks solution, which contained (in mM) 129.8 Na^+, 5.8 K^+, 135 Cl^-, 4.17 HCO3^-, 0.34 HPO4^2-, 0.44 H2PO4^-, 1.8 Ca^2+, 0.9 Mg^2+, 0.4 SO4^2-, 10 glucose, 2.9 sucrose, and 10 Hepes, and its pH was adjusted to 7.4 with NaOH. In addition, the patch under study was continuously superfused by means of a close delivery system consisting of a pipette (tip diameter 200 μm) placed approximately 300 μm away from the cell. This could be switched, with a dead-space time of around 5 s, to a solution containing a drug.
(§3) Electrodes were pulled from Corning borosilicate glass (1.5 mm O.D. × 0.86 mm I.D.) using a Sutter P-97 pipette puller and fire polished using a Narashige MF 83 microforge. Pipettes had resistances of 2 to 5 MΩ when filled with recording solutions and series resistance was compensated by up to 80%. Standard single-channel patch clamp recording methods were used. Voltage clamp commands were delivered via an Axopatch 200B patch clamp amplifier (Axon Instruments) connected to a Digidata 1322A AD/DA converter (Axon Instruments) interfaced to computers running pClamp software (Axon Instruments). Data was acquired at 100 KHz and filtered at 2 KHz or 5 KHz. Patches were held at either −60 mV or −100 mV and depolarized in 20 mV increments to 200 mV. Residual capacitance and leakage currents were subtracted using either a P/4 protocol or offline by manual leak subtraction.
(§4) The human LINGO2 transcript used [NM_001354575.2] was untagged in a pcDNA 3.1 vector (VectorBuilder). The α subunit of the rabbit BK channel was isolated from rabbit urethral smooth muscle and cloned using the pcDNA TOPO DNA cloning kit (Life Technologies). The identifiesd transcript corresponded to the ZERO variant of mouse BKα and to variant 2 (NM_002247.3) of human BKα. We used 100 ng ml^−1 cDNA for BKα only transfections, whereas a 100:500 ng ml^−1 cDNA ratio was used for BKα:LINGO2 and BKα:LINGO1 cotransfections for inside-out patch recordings. GFP (150 ng ml^−1) was included in all transfections except those used for Figure 2, C and D. cDNA was transiently transfected into HEK cells using lipofectamine. Site-directed mutagenesis used the Phusion kit (Thermo Fisher Scientific) method ([41]) and all mutations were confirmed by sequencing.
HEK293 cells were cultured in Dulbecco's modified Eagle's medium + MEM media containing 10% fetal bovine serum and 1% Penicillin-Streptomycin antibiotics at 37 °C, and 95% humidifying incubator containing 5% CO2. Subculturing was done by 0.05% Trypsin-EDTA solution.
All data is presented as mean ± SD and was analyzed with Prism software (GraphPad). Individual data points are also shown in bar charts. Statistical differences were assessed using either paired or unpaired nonparametric tests (Wilcoxin signed-rank test, Mann–Whitney test), or the extra sum of squares F-test, as appropriate. Comparisons of three or more nonparametric data sets used Friedman’s test followed by Dunn’s test for multiple comparisons, whereas ANOVA was used for three or more parametric data sets. p < 0.05 was taken as significant.

For assay [2], the system named is BKα currents. Put plainly: Effect of Ch-T on BKα currents in absence of LINGO2 (inside-out patch). In kind it is cell-based, rabbit. The protocol: as §1
During experiments, the dish containing HEK cells was superfused with Hanks solution, which contained (in mM) 129.8 Na^+, 5.8 K^+, 135 Cl^-, 4.17 HCO3^-, 0.34 HPO4^2-, 0.44 H2PO4^-, 1.8 Ca^2+, 0.9 Mg^2+, 0.4 SO4^2-, 10 glucose, 2.9 sucrose, and 10 Hepes, and its pH was adjusted to 7.4 with NaOH. […]
(§5) All data is presented as mean ± SD and was analyzed with Prism software (GraphPad). […] Statistical differences were assessed using either paired or unpaired nonparametric tests (Wilcoxin signed-rank test, Mann–Whitney test), or the extra sum of squares F-test, as appropriate. […]

The subject of assay [3] is BK:LINGO2 M605L mutant. Kind of assay: Effect of Ch-T on BK:LINGO2 M605L currents (inside-out patch). The assay is classed as cell-based, rabbit BKα, human LINGO2. The protocol:
as §1, §2, §3
The human LINGO2 transcript used [NM_001354575.2] was untagged in a pcDNA 3.1 vector (VectorBuilder). The α subunit of the rabbit BK channel was isolated from rabbit urethral smooth muscle and cloned using the pcDNA TOPO DNA cloning kit (Life Technologies). […]
as §5

The test system of assay [4] is BK:LINGO2 M603L mutant. Kind of assay: Effect of Ch-T on BK:LINGO2 M603L currents (inside-out patch). In kind it is cell-based, rabbit BKα, human LINGO2. The protocol: as §1, §2
Electrodes were pulled from Corning borosilicate glass (1.5 mm O.D. × 0.86 mm I.D.) using a Sutter P-97 pipette puller and fire polished using a Narashige MF 83 microforge. Pipettes had resistances of 2 to 5 MΩ when filled with recording solutions and series resistance was compensated by up to 80%. Standard single-channel patch clamp recording methods were used. […]
as §5

In assay [5] the test system is BK:LINGO2 channels. Kind of assay: Effect of Ch-T on BK:LINGO2 currents at different voltages (GV curves). The assay is classed as cell-based, rabbit BKα, human LINGO2. As to the method: as §1, §2, §3
as §4, with “sequencing. […]” for “sequencing.”
G was derived from peak currents according to Ohm’s law[1] […] Summary data was expressed as the […]. […] For BK constructs, data from each patch was normalized to the peak conductance measured in either 1 μM or 10 μM Ca^2+ to obtain Gmax, and curves were constrained to the Gmax value obtained in this. […]

Assay [6] has as its system BKα:LINGO2. Kind of assay: Effect of Ch-T on steady-state voltage-dependent inactivation (double pulse protocol). In kind it is cell-based, rabbit BKα, human LINGO2. The settings on record: 200 μM Chloramine-T, 2 min, 100 nM Ca2+, control inactivation V1/2 36±5 mV, n = 6. The protocol: All excised patch experiments were performed at 37 °C in 140 mM symmetrical K^+ solutions which contained 140 mM KCl, 10 mM glucose, 10 mM Hepes, and either 1 mM ethylene glycol-bis(β-amino ether)-N,N,N′,N′-tetraacetic acid (EGTA (for free [Ca^2+] 100 nM to 300 nM) or 1 mM hydroxyethylethylenediaminetriacetic acid (HEDTA for free [Ca^2+] 1 μM to 10 μM) and the pH of all solutions was adjusted to 7.2 with KOH. These solutions were made with double-distilled, deionized, filtered water from a MilliQ water purification system. The pipette solution contained 100 nM free Ca^2+. We used “Chelator” (https://www.ru.nl/animal/research/chelator/) to calculate the total amount of Ca^2+ required, as per Schoenmakers et al., ([40]) and free Ca^2+ concentrations were checked with a Ca^2+ sensitive electrode. […]
Inactivation curves were fitted with a similar Boltzmann function:[3] I/Imax=1/{1+exp[±(V1/2−Vc)/K]} where, I was the current recorded at the test step, Imax was the maximal current recorded, Vc was the conditioning potential (see RESULTS), and K was the slope factor.
as §5

`Cc1ccc(S(=O)(=O)NCl)cc1` [Ch-T, Chloramine T]: the “Effect on BK:LINGO2 inactivation” value in assay [1] is “caused rapid abolition of inactivation; also recorded: maintained for the duration of the recording, despite the removal of the oxidizing agent; also recorded: completely abolished inactivation and also increased peak current amplitude; also recorded: inactivation was clearly abolished”; in assay [1] (listed as chloramine-T), “abolished inactivation”. Besides, the “Sustained current amplitude, % of peak current, after 60 s Ch-T” value in assay [1] (60 s, last 5 ms, control 11 ± 8%, n = 7, p < 0.05, mean ± SD) was determined as 59 ± 39%. The “Sustained current amplitude, % of peak current, after 120 s Ch-T” value in assay [1] (120 s, last 5 ms, control 11 ± 8%, n = 7, p < 0.05, mean ± SD) was 130 ± 19%. For the same compound, the “Increase of peak current amplitude compared to control” value in assay [1] (120 s, p < 0.05, n = 7, mean ± SD) was found to be 35 ± 31%. The “Increase of BKα current amplitude” value in assay [2] (200 μM Ch-T, up to 210 s, +160 mV, 100 nM Ca2+, n = 4-5, p = 0.43 (not significant)) was 21 ± 27%. Moreover, the “Effect on BKα current amplitude” value in assay [2] (Ch-T, 4-min application, n = 4 to 5, p = 0.43) is “failed to significantly increase the BKα current amplitude”. Moreover, the “Ch-T effectiveness reduction compared to WT BK:LINGO2 currents” value in assay [3] (M605L vs WT, p < 0.001, Mann-Whitney test) is listed as ~50 % less effective. The “Sustained current, % of peak current amplitude, after an additional 90 s Ch-T” value in assay [3] (M605L, 200 μM Ch-T, 60 s + additional 90 s, 100 nM Ca2+, +160 mV, control 6 ± 4%, p < 0.01) was determined as 47 ± 25%. The “Sustained current, % of peak current amplitude, after 60 s Ch-T” value in assay [3] (M605L, 200 μM Ch-T, 60 s, 100 nM Ca2+, +160 mV, control 6 ± 4%, n = 10, p < 0.01) worked out at 15 ± 14%. Further, the “Sustained current, % of peak current amplitude, at end of 210 s application” value in assay [3] (M605L, 200 μM Ch-T, 210 s, 100 nM Ca2+, +160 mV) is reported as ~50%. In addition, in assay [4] (200 μM Ch-T, 60 s, 100 nM Ca2+, +160 mV, control 10 ± 9%, n = 9, p < 0.05), the “Sustained current after 60 s Ch-T” value is listed as 17 ± 9%. The “Sustained current after 150 s Ch-T” value in assay [4] (200 μM Ch-T, 150 s, 100 nM Ca2+, +160 mV, control 10 ± 9%, n = 9, p < 0.05) was 20 ± 12%. Also, in assay [4] (Ch-T, 7 to 9 patches), the “Sustained current during Ch-T (summary in figure legend)” value was ~20%. Further, the “Inactivation after Ch-T, family of voltages” value in assay [5] (100 nM Ca2+, -100 to +200 mV) is “inactivation was practically abolished; also recorded: increased current amplitude and practically abolished inactivation”. Also, the “Half maximal activation voltage V1/2 after Ch-T” value in assay [5] (100 nM Ca2+, Ch-T 2 min, before Ch-T 128 ± 3 mV, n = 7, Boltzmann fit) came out at 86 ± 11 mV. Further, the “Inactivation and current amplitude after Ch-T, family of voltages” value in assay [5] (10 μM Ca2+, 200 μM Ch-T, -100 to +200 mV) was “the current amplitude was increased at all voltages recorded, and inactivation was practically abolished”. In assay [5] (10 μM Ca2+, -60 mV, 200 μM Ch-T, before 0.06 ± 0.02, n = 6, p < 0.05), the “G/Gmax at -60 mV in Ch-T” value amounted to 0.48 ± 0.27. The “Open probability of BK:LINGO2 channels / conductance” value in assay [5] (Ch-T in 10 μM Ca2+) is on record as “large increases in G across the voltage range; also recorded: increased the G/Gmax at all voltages; also recorded: significantly increased the open probability of BK:LINGO2 channels”. Also, the entries for the “Steady-state voltage-dependent inactivation after Ch-T” value in assay [6] and in assay [6] (listed as Chloramine-T) were “no time- or voltage-dependent inactivation was observed” and “compl etel y abol i shed”, respectively.
